# Legend:
# human recombinant CB1R = molecular target: T1, human recombinant CB1R (Homo sapiens, UniProt P21554); assay: Competition binding assay, displacement of [3H]-CP-55,940 from membranes of HEK-293 cells overexpressing CB1R; conditions: for Ki: [3H]-CP-55,940 displacement, HEK-293 membranes, 90 min at 30 °C, Cheng-Prusoff, read-out: Ki hCB1R (µM ± S.E.); for inhibition at 10 µM: read-out: % Displacement/ Max. Conc. Tested, hCB1R
# T1 construct: purchased Perkin-Elmer, Italy; host or cells: HEK-293 cells (membranes)
# Procedure: (§1) The binding affinities (Ki values) of the compounds for human recombinant hCB1R and hCB2R were determined as previously described, using SR144528 as a reference compound [30], and are reported in Table 1.
# (§2) Compound affinity for CB1R and CB2R was measured as previously reported. […] Competition curves were performed by displacing [^3H]-CP-55 940 with increasing concentrations of compounds (0.1 nM–10 or 25 μM). […] All compounds were tested following the procedure described by the manufacturer (Perkin-Elmer, Italy). Displacement curves were generated by incubating drugs with [^3H]-CP-55 940 for 90 min at 30 °C. Ki values were calculated by applying the Cheng−Prusoff equation to the IC50 values for the displacement of the bound radioligand by increasing concentrations of the test compound. Data represent the mean values of three independent experiments performed in duplicate and are expressed as the average of Ki (µM) ± standard deviation. Data were analyzed using PRISM.9.3 software (GraphPad Software Inc, San Diego, CA, USA).
# human CB2R = human CB2R (Homo sapiens, UniProt P34972); assay: Competition binding assay, displacement of [3H]-CP-55,940 from membranes of HEK-293 cells overexpressing CB2R; set-up: purchased Perkin-Elmer, Italy; host or cells: HEK-293 cells (membranes); conditions: for Ki: [3H]-CP-55,940 displacement, HEK-293 membranes, 90 min at 30 °C, Cheng-Prusoff, read-out: Ki hCB2R (µM ± S.E.); for inhibition at 10 µM: max conc. tested 10 µM
# Procedure: as §1, §2
# [1] = read-out: % Displacement/ Max Conc. Tested, hCB2R (converted)
# T1 sequence (P21554 whole entry): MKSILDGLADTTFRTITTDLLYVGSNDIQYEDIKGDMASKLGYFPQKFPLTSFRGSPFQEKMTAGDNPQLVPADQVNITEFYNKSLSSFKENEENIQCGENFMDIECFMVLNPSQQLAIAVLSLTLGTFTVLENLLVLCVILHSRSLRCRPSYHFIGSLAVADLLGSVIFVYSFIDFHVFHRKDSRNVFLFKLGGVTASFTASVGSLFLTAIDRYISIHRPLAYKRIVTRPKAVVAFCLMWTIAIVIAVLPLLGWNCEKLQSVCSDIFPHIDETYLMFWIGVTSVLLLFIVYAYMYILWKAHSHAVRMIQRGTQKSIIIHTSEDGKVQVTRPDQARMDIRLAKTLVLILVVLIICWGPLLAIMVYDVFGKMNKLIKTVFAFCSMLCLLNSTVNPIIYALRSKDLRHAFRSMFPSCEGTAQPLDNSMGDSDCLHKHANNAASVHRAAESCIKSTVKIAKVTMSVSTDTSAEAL
# Chain of human CB2R (P34972 whole entry): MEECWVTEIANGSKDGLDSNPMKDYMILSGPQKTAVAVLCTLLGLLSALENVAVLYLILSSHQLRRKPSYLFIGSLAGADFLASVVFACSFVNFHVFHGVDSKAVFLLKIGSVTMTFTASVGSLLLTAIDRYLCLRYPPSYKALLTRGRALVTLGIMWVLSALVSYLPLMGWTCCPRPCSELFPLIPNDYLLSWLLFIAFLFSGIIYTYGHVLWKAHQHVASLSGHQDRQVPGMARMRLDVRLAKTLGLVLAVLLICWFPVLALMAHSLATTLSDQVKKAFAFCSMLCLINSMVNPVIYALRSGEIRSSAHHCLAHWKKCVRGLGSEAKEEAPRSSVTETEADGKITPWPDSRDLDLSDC
Structure (SMILES),Ki (human recombinant CB1R) [µM],inhibition at 10 µM (human recombinant CB1R) [%],melting point [°C],Ki (human CB2R) [µM],inhibition at 10 µM (human CB2R; [1]) [%],"inhibition at 25 µM (human CB2R; max conc. tested 25 µM, read-out: % Displacement/ Max Conc. Tested, hCB2R (converted)) [%]"
"O=C1N(CC2CC2)C(=NS(=O)(=O)c2ccc(Br)cc2)CN1C12CC3CC(CC(C3)C1)C2 [Compound 12d, N-[1-Adamant-1-yl-3-cyclopropylmethyl-2-oxoimidazolidin-4-ylidene]-4-bromo-1-benzenesulfonamide]",> 10,47.9,176 to 176.5,> 10,32.5,
"COCCN1C(=O)N(C(C)(C)C)CC1=NS(=O)(=O)c1ccccc1 [Compound 11b, N-[1-tert-Butyl-3-(2-methoxyethyl)-2-oxoimidazolidin-4-ylidene]benzenesulfonamide]",> 10,52.6,104.5 to 105,> 10,21.2,
"Cc1ccc(S(=O)(=O)N=C2CN(C(C)(C)C)C(=O)N2CC2CC2)cc1 [Compound 10c, N-[1-tert-Butyl-3-cyclopropylmethyl-2-oxoimidazolidin-4-ylidene]-4-methylbenzenesulfonamide]",> 10,0,104.5 to 105,1.47 ± 0.05,,89.5
"Cc1cc(C)c(S(=O)(=O)N=C2CN(C(C)(C)C)C(=O)N2CC2CC2)c(C)c1 [Compound 10f, N-[1-tert-Butyl-3-cyclopropylmethyl-2-oxoimidazolidin-4-ylidene]-2,4,6-trimethylbenzenesulfonamide]",> 10,15.4,149 to 150,0.63 ± 0.14,81.3,
"CC(C)(C)N1CC(=NS(=O)(=O)c2ccc(Br)cc2)N(CC2CC2)C1=O [Compound 10d, 4-Bromo-N-[1-tert-Butyl-3-cyclopropylmethyl-2-oxoimidazolidin-4-ylidene]benzenesulfonamide]",> 10,22.2,98 to 98.5,0.83 ± 0.25,77.2,
"COCCN1C(=O)N(C(C)(C)C)CC1=NS(=O)(=O)c1cccc(Br)c1 [Compound 11e, 3-Bromo-N-[1-tert-butyl-3-(2-methoxyethyl)-2-oxoimidazolidin-4-ylidene]benzenesulfonamide]",> 10,10,104 to 105,> 10,41.1,
"CC(C)(C)N1CC(=NS(C)(=O)=O)N(CC2CC2)C1=O [Compound 10a, N-[1-tert-Butyl-3-cyclopropylmethyl-2-oxoimidazolidin-4-ylidene]methanesulfonamide]",> 10,16.3,83.5 to 84,> 10,13.4,
"O=C1N(CC2CC2)/C(=N/S(=O)(=O)c2ccc3ccccc3c2)CN1C12CC3CC(CC(C3)C1)C2 [Compound 12h, N-[1-Adamant-1-yl-3-cyclopropylmethyl-2-oxoimidazolidin-4-ylidene]naphtalene-2-sulfonamide]",> 10,38.5,167 to 167.5,> 10,17.7,
"COCCN1C(=O)N(C(C)(C)C)CC1=NS(=O)(=O)c1ccc(Br)cc1 [Compound 11d, 4-Bromo-N-[1-tert-butyl-3-(2-methoxyethyl)-2-oxoimidazolidin-4-ylidene]benzenesulfonamide]",> 10,50.1,103.5 to 104,> 10,42.7,
"O=C1N(CC2CC2)/C(=N/S(=O)(=O)c2cccc3ccccc23)CN1C12CC3CC(CC(C3)C1)C2 [Compound 12g, N-[1-Adamant-1-yl-3-cyclopropylmethyl-2-oxoimidazolidin-4-ylidene]naphtalene-1-sulfonamide]",> 10,12.8,188.5 to 189,> 10,45.6,
